According to the NIST ThermoML archive (doi:10.1021/acs.jced.6b00168):
Where “and” joins values, the source holds several entries; their conditions need not be identical. Equal values may be shown once. ± gives the expanded uncertainty stated by the source.

Tests used:
[1] = 298.15 K; 100 kPa; Liquid; Frequency=3 MHz; Sing-around technique in a fixed-path interferometer
[2] = mn = molality of the nth substance listed, in mol/kg; details: 100 kPa, Liquid; for speed of sound: Frequency=3 MHz, Sing-around technique in a fixed-path interferometer; for mass density: Vibrating tube method

O [water]
Details | speed of sound [m/s]
[1] | 1495.9 ± 1.6

O=C(N[C@H](CO)[C@H](O)c1ccc([N+](=O)[O-])cc1)C(Cl)Cl + O
[2]
Details | mass density, 288.15 K [kg/m3] | mass density, 298.15 K [kg/m3] | mass density, 308.15 K [kg/m3] | mass density, 318.15 K [kg/m3] | speed of sound, 288.15 K [m/s] | speed of sound, 298.15 K [m/s] | speed of sound, 308.15 K [m/s] | speed of sound, 318.15 K
m1 = 0.0005 | 999.273 ± 0.23 | 997.209 ± 0.23 | 994.205 ± 0.23 | 990.372 ± 0.23 | 1466.9 ± 1.6 | 1496 ± 1.6 | 1519.6 ± 1.6 | 1536.2 ± 1.6 m/s
m1 = 0.001 | 999.429 ± 0.23 | 997.363 ± 0.23 | 994.356 ± 0.23 | 990.522 ± 0.23 | 1467 ± 1.6 | 1496.1 ± 1.6 | 1519.7 ± 1.6 | 1536.4 ± 1.6 m/s
m1 = 0.002 | 999.643 ± 0.23 | 997.576 ± 0.23 | 994.56 ± 0.23 | 990.713 ± 0.23 | 1467.1 ± 1.6 | 1496.2 ± 1.6 | 1519.9 ± 1.6 | 1536.8 ± 1.6 m/s and 1536.5 ± 1.6 m/s
m1 = 0.004 | 999.922 ± 0.23 | 997.847 ± 0.23 | 994.831 ± 0.23 | 990.992 ± 0.23 | 1467.5 ± 1.6 | 1496.7 ± 1.6 | 1520.2 ± 1.6 | 1536.8 ± 1.6 m/s
